Results from PubChem BioAssay (NCI).
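Five compound concentrations were applied to cells in 96-well plates for 48 hours; endpoints were derived by simple linear interpolation of the resulting dose-response curve. Here, GI50 denotes the concentration required for 50% inhibition of growth. The concentration for full growth arrest is given as TGI.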

Tests used:
Assay in all cases: DTP human tumour cell line panel, 48 h
OVCAR-5 ovarian = test system: OVCAR-5 ovarian
UACC-257 melanoma = test system: UACC-257 melanoma
PC-3 prostate = test system: PC-3 prostate
HOP-92 NSCLC = test system: HOP-92 NSCLC
CCRF-CEM leukemia = test system: CCRF-CEM leukemia
MDA-MB-435 = test system: MDA-MB-435
SK-OV-3 ovarian = test system: SK-OV-3 ovarian
SK-MEL-5 melanoma = test system: SK-MEL-5 melanoma
SF-539 CNS = test system: SF-539 CNS
HOP-62 NSCLC = test system: HOP-62 NSCLC
MCF7 breast = test system: MCF7 breast
KM12 colon = test system: KM12 colon
SF-295 CNS = test system: SF-295 CNS
SK-MEL-28 melanoma = test system: SK-MEL-28 melanoma
HCT-116 colon = test system: HCT-116 colon
A549 NSCLC = test system: A549 NSCLC
M14 melanoma = test system: M14 melanoma
CAKI-1 renal = test system: CAKI-1 renal
HCT-15 colon = test system: HCT-15 colon
HL-60(TB) leukemia = test system: HL-60(TB) leukemia
COLO 205 colon = test system: COLO 205 colon
U251 CNS = test system: U251 CNS
NCI/ADR-RES ovarian = test system: NCI/ADR-RES ovarian
MOLT-4 leukemia = test system: MOLT-4 leukemia
A498 renal = test system: A498 renal
UO-31 renal = test system: UO-31 renal
EKVX NSCLC = test system: EKVX NSCLC
HT29 colon = test system: HT29 colon
TK-10 renal = test system: TK-10 renal
IGROV1 ovarian = test system: IGROV1 ovarian
SNB-75 CNS = test system: SNB-75 CNS
BT-549 breast = test system: BT-549 breast
HCC-2998 colon = test system: HCC-2998 colon
SR leukemia = test system: SR leukemia
SN12C renal = test system: SN12C renal
T-47D breast = test system: T-47D breast
OVCAR-4 ovarian = test system: OVCAR-4 ovarian
SNB-19 CNS = test system: SNB-19 CNS
MALME-3M melanoma = test system: MALME-3M melanoma
HS 578T breast = test system: HS 578T breast
MDA-MB-231 breast = test system: MDA-MB-231 breast
SF-268 CNS = test system: SF-268 CNS
ACHN renal = test system: ACHN renal
NCI-H23 lung = test system: NCI-H23 lung
NCI-H522 lung = test system: NCI-H522 lung
DU-145 prostate = test system: DU-145 prostate
NCI-H226 lung = test system: NCI-H226 lung
786-0 renal = test system: 786-0 renal
SK-MEL-2 melanoma = test system: SK-MEL-2 melanoma
K-562 leukemia = test system: K-562 leukemia
UACC-62 melanoma = test system: UACC-62 melanoma
RXF 393 renal = test system: RXF 393 renal
OVCAR-8 ovarian = test system: OVCAR-8 ovarian
RPMI-8226 leukemia = test system: RPMI-8226 leukemia

For Oc1ccc(CSc2nnc(-c3ccc(Oc4ccccc4)cc3)o2)c2cccnc12, the GI50 (OVCAR-5 ovarian) was 8.02 µM, the TGI (OVCAR-5 ovarian) was over 100 µM and the GI50 (UACC-257 melanoma) was 15.7 µM. It also gave a TGI (UACC-257 melanoma) of over 100 µM, a GI50 (PC-3 prostate) of 0.561 µM and a TGI (PC-3 prostate) of over 100 µM. The GI50 (HOP-92 NSCLC) was 1.41 µM, the TGI (HOP-92 NSCLC) was 24.9 µM and the GI50 (CCRF-CEM leukemia) was 0.498 µM. The TGI (CCRF-CEM leukemia) was over 100 µM, the GI50 (MDA-MB-435) was 0.713 µM and the TGI (MDA-MB-435) was over 100 µM. For the same molecule, the GI50 (SK-OV-3 ovarian) was 1.92 µM, the TGI (SK-OV-3 ovarian) was 21.8 µM and the GI50 (SK-MEL-5 melanoma) was 1.27 µM. For the same molecule, the TGI (SK-MEL-5 melanoma) was over 100 µM, the GI50 (SF-539 CNS) was 0.689 µM and the TGI (SF-539 CNS) was 55.5 µM. For the same molecule, the GI50 (HOP-62 NSCLC) was 0.682 µM, the TGI (HOP-62 NSCLC) was 9.85 µM and the GI50 (MCF7 breast) was 0.497 µM. It also gave a TGI (MCF7 breast) of over 100 µM, a GI50 (KM12 colon) of 2.65 µM and a TGI (KM12 colon) of over 100 µM. The GI50 (SF-295 CNS) was 0.877 µM, the TGI (SF-295 CNS) was 7.49 µM and the GI50 (SK-MEL-28 melanoma) was 4.8 µM. The TGI (SK-MEL-28 melanoma) was over 100 µM, the GI50 (HCT-116 colon) was 0.42 µM and the TGI (HCT-116 colon) was 4.4 µM. It also gave a GI50 (A549 NSCLC) of 1.68 µM, a TGI (A549 NSCLC) of over 100 µM and a GI50 (M14 melanoma) of 0.621 µM. It also gave a TGI (M14 melanoma) of over 100 µM, a GI50 (CAKI-1 renal) of 1.88 µM and a TGI (CAKI-1 renal) of over 100 µM. The GI50 (HCT-15 colon) was 0.368 µM, the TGI (HCT-15 colon) was over 100 µM and the GI50 (HL-60(TB) leukemia) was 0.668 µM. The TGI (HL-60(TB) leukemia) was over 100 µM, the GI50 (COLO 205 colon) was over 100 µM and the TGI (COLO 205 colon) was over 100 µM. The GI50 (U251 CNS) was 0.46 µM, the TGI (U251 CNS) was 2.7 µM and the GI50 (NCI/ADR-RES ovarian) was 0.489 µM. It also gave a TGI (NCI/ADR-RES ovarian) of 84.6 µM, a GI50 (MOLT-4 leukemia) of 1.28 µM and a TGI (MOLT-4 leukemia) of over 100 µM. The GI50 (A498 renal) was 8.41 µM, the TGI (A498 renal) was over 100 µM and the GI50 (UO-31 renal) was 0.373 µM. For the same molecule, the TGI (UO-31 renal) was 2.38 µM, the GI50 (EKVX NSCLC) was 0.515 µM and the TGI (EKVX NSCLC) was over 100 µM. For the same molecule, the GI50 (HT29 colon) was over 100 µM, the TGI (HT29 colon) was over 100 µM and the GI50 (TK-10 renal) was 2.45 µM. The TGI (TK-10 renal) was 69.8 µM, the GI50 (IGROV1 ovarian) was 0.645 µM and the TGI (IGROV1 ovarian) was over 100 µM. The GI50 (SNB-75 CNS) was 0.595 µM, the TGI (SNB-75 CNS) was 3.92 µM and the GI50 (BT-549 breast) was 0.905 µM. It also gave a TGI (BT-549 breast) of over 100 µM, a GI50 (HCC-2998 colon) of 1.04 µM and a TGI (HCC-2998 colon) of over 100 µM. It also gave a GI50 (SR leukemia) of 0.37 µM, a TGI (SR leukemia) of over 100 µM and a GI50 (SN12C renal) of 2.13 µM. It also gave a TGI (SN12C renal) of over 100 µM, a GI50 (T-47D breast) of 2.17 µM and a TGI (T-47D breast) of 9.12 µM. The GI50 (OVCAR-4 ovarian) was 1.77 µM, the TGI (OVCAR-4 ovarian) was 8.01 µM and the GI50 (SNB-19 CNS) was 0.421 µM. The TGI (SNB-19 CNS) was over 100 µM, the GI50 (MALME-3M melanoma) was 4.54 µM and the TGI (MALME-3M melanoma) was over 100 µM. The GI50 (HS 578T breast) was 0.612 µM, the TGI (HS 578T breast) was 27.4 µM and the GI50 (MDA-MB-231 breast) was 1.49 µM. It also gave a TGI (MDA-MB-231 breast) of 79.9 µM, a GI50 (SF-268 CNS) of 0.659 µM and a TGI (SF-268 CNS) of over 100 µM. For the same molecule, the GI50 (ACHN renal) was 0.565 µM, the TGI (ACHN renal) was 2.14 µM and the GI50 (NCI-H23 lung) was 0.739 µM. It also gave a TGI (NCI-H23 lung) of 44.9 µM, a GI50 (NCI-H522 lung) of 4.99 µM and a TGI (NCI-H522 lung) of over 100 µM. The GI50 (DU-145 prostate) was 3.27 µM, the TGI (DU-145 prostate) was over 100 µM and the GI50 (NCI-H226 lung) was 15.3 µM. For the same molecule, the TGI (NCI-H226 lung) was over 100 µM, the GI50 (786-0 renal) was 1.02 µM and the TGI (786-0 renal) was 5.88 µM. For the same molecule, the GI50 (SK-MEL-2 melanoma) was 3.56 µM, the TGI (SK-MEL-2 melanoma) was 90.2 µM and the GI50 (K-562 leukemia) was 0.368 µM. For the same molecule, the TGI (K-562 leukemia) was over 100 µM, the GI50 (UACC-62 melanoma) was 2.41 µM and the TGI (UACC-62 melanoma) was over 100 µM. The GI50 (RXF 393 renal) was 3.55 µM, the TGI (RXF 393 renal) was over 100 µM and the GI50 (OVCAR-8 ovarian) was 0.633 µM. For the same molecule, the TGI (OVCAR-8 ovarian) was over 100 µM, the GI50 (RPMI-8226 leukemia) was 0.458 µM and the TGI (RPMI-8226 leukemia) was over 100 µM.
